Literature values, collected in patent US8349982B2, “Macromonomers and hydrogels” (William Marsh Rice University, priority 2006, dated 2013).

Details: stated as typical

Solubility in water (in words): insoluble in water
Compound: C=CC(=O)OCC(CO)(COC(=O)C=C)COC(=O)CCCCCCCCCCCCCCCCC [PEDAS, Pentaerythritol diacrylate monostearate]
